Patent publication US20240018125A1, “CYCLIC ISOTHIOUREA DERIVATIVES AS CXCR4 MODULATORS” (ERMIUM THERAPEUTICS, priority 2020, published 2024)
Counter-ions that a name gives are not always drawn.

System: peripheral blood mononuclear cells (PBMCs) from healthy donors
Assay: IFN production by R848-activated PBMCs, quantified with twINNE luciferase reporter cell line
Format: cell-based, human
Conditions: Homo sapiens, PBMC; read-out: IC50 of anti-inflammatory activity (IFN production by activated PBMCs)
Procedure, shortened: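 Functional IFN was quantified by luciferase output from the twINNE ISRE-reporter line after 24 h on conditioned supernatants. Those supernatants came from human PBMCs (4.10^6/mL) pre-treated with compound and then stimulated for 24 h with 5 μg/mL resiquimod. IC50s were fitted by nonlinear variable-slope regression.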

C1=C(CSC2=NCc3ccccc3N2)N2CC(C3CCCCC3)N=C2S1 (centres unmarked) [Example 15, 6-cyclohexyl-3-(((3,4-dihydroquinazolin-2-yl)thio)methyl)-5,6-dihydroimidazo[2,1-b]thiazole dihydrochloride] and CC1(C)CN2C(CSC3=NCc4ccccc4N3)=CSC2=N1 [Example 3, 3-(((3,4-dihydroquinazolin-2-yl)thio)methyl)-6,6-dimethyl-5,6-dihydroimidazo[2,1-b]thiazole dihydrochloride] cannot be ordered by IC50: ≤ 10 µM for the first, ≤ 10 µM for the second.

Clc1ccc2c(c1)CN=C(SCCN1CCCC1)N2 [Example 59, 6-chloro-2-((2-(pyrrolidin-1-yl)ethyl)thio)-1,4-dihydroquinazoline dihydrochloride] and C[C@H](CSC1=NCc2cc(Cl)ccc2N1)N1CCCC1 [Example 167, (R)-6-chloro-2-((2-(pyrrolidin-1-yl)propyl)thio)-1,4-dihydroquinazoline dihydrochloride] cannot be ordered by IC50: ≤ 10 µM for the first, ≤ 10 µM for the second.

CC1(C)CN=C(SCC2=CSC3=Nc4cc(Cl)ccc4CN23)N1 [Example 9, 8-chloro-3-(((5,5-dimethyl-4,5-dihydro-1H-imidazol-2-yl)thio)methyl)-5H-thiazolo[2,3-b]quinazoline dihydrochloride] and CC1(C)CN=C(SCC2=CSC3=Nc4ccc(Cl)cc4CN23)N1 [Example 2, 7-chloro-3-(((5,5-dimethyl-4,5-dihydro-1H-imidazol-2-yl)thio)methyl)-5H-thiazolo[2,3-b]quinazoline dihydrochloride] fall in the same range of IC50: 10 to 32 µM for the first, 10 to 32 µM for the second.

Fc1cc(Cl)cc2c1N=C1SC=C(CSC3=NCc4ccccc4N3)N1C2 [Example 86, 7-chloro-3-(((1,4-dihydroquinazolin-2-yl)thio)methyl)-9-fluoro-5H-thiazolo[2,3-b]quinazoline dihydrochloride] and Brc1ccc2c(c1)CN1C(CSC3=NCc4ccccc4N3)=CSC1=N2 [Example 69, 7-bromo-3-(((1,4-dihydroquinazolin-2-yl)thio)methyl)-5H-thiazolo[2,3-b]quinazoline dihydrochloride] cannot be ordered by IC50: ≤ 10 µM for the first, ≤ 10 µM for the second.

c1ccc2c(c1)CN=C(SCCN1CCCCCC1)N2 [Example 90, 2-((2-(azepan-1-yl)ethyl)thio)-1,4-dihydroquinazoline dihydrochloride] and F[C@H]1CCN(CCSC2=NCc3ccccc3N2)C1 [Example 156, (S)-2-((2-(3-fluoropyrrolidin-1-yl)ethyl)thio)-1,4-dihydroquinazoline dihydrochloride] cannot be ordered by IC50: ≤ 10 µM for the first, 10 to 32 µM for the second.

Clc1ccc2c(c1)CN1C(CSC3=NCc4cccc(Br)c4N3)=CSC1=N2 [Example 92, 3-(((8-bromo-1,4-dihydroquinazolin-2-yl)thio)methyl)-7-chloro-5H-thiazolo[2,3-b]quinazoline dihydrochloride] and Clc1ccc2c(c1)CN1C(CSC3=NCc4cc(Br)ccc4N3)=CSC1=N2 [Example 67, 3-(((6-bromo-1,4-dihydroquinazolin-2-yl)thio)methyl)-7-chloro-5H-thiazolo[2,3-b]quinazoline dihydrochloride] cannot be ordered by IC50: ≤ 10 µM for the first, 10 to 32 µM for the second.

CC(C)N1CCN=C1SCC1=CSC2=Nc3ccc(Cl)cc3CN12 [Example 48, 7-chloro-3-(((1-isopropyl-4,5-dihydro-1H-imidazol-2-yl)thio)methyl)-5H-thiazolo[2,3-b]quinazoline dihydrochloride] and CC1(C)CN2C(CSC3=NCc4cc(Cl)ccc4N3)=CSC2=N1 [Example 1, 3-(((6-chloro-1,4-dihydroquinazolin-2-yl)thio)methyl)-6,6-dimethyl-5,6-dihydroimidazo[2,1-b]thiazole dihydrochloride] cannot be ordered by IC50: ≤ 10 µM for the first, ≤ 10 µM for the second.

First: Clc1nccc2sc(CSC3=NCc4ccccc4N3)cc12 [Example 116, 4-chloro-2-(((1,4-dihydroquinazolin-2-yl)thio)methyl)thieno[3,2-c]pyridine dihydrochloride]
Second: Cl.c1ccc2c(c1)CN=C(SCc1csc3nc4ccccc4n13)N2 [Example 96, 3-(((3,4-dihydroquinazolin-2-ylthio)methyl)benzo[4,5]imidazo[2,1-b]thiazole hydrochloride]
The IC50 of the first is lower: ≤ 10 µM for the first, > 32 µM for the second. The first is the more potent here.

First: c1ccc(N2CCC(SC3=NCc4ccccc4CN3)C2)cc1 (centres unmarked) [Example 106, 3-((1-phenylpyrrolidin-3-yl)thio)-2,5-dihydro-1H-benzo[e][1,3]diazepine hydrochloride]
Second: c1cncc(CSC2=NCc3ccccc3CN2)c1 [Example 193, 3-((pyridin-3-ylmethyl)thio)-2,5-dihydro-1H-benzo[e][1,3]diazepine]
The IC50 of the first is lower: 10 to 32 µM for the first, > 32 µM for the second. The first is the more potent here.

Going from Fc1cccc2c1CN=C(SCCCCN1CCCC1)N2 [Example 149, 5-fluoro-2-((4-(pyrrolidin-1-yl)butyl)thio)-1,4-dihydroquinazoline dihydrochloride] to O=C(CCCSC1=NCc2ccccc2N1)N1CCCC1 [Example 147, 4-((1,4-dihydroquinazolin-2-yl)thio)-1-(pyrrolidin-1-yl)butan-1-one hydrochloride], the IC50 rises from ≤ 10 µM to > 32 µM.

c1ccc(CC2CN=C(SCCN3CCCCCC3)N2)cc1 (centres unmarked) [Example 58, 1-(2-((5-benzyl-4,5-dihydro-1H-imidazol-2-yl)thio)ethyl)azepane dihydrochloride] and C1CCN(CCSC2=NCC3(CC3)N2)C1 [Example 187, 5-((2-(pyrrolidin-1-yl)ethyl)thio)-4,6-diazaspiro[2.4]hept-5-ene dihydrochloride] cannot be ordered by IC50: 10 to 32 µM for the first, ≤ 10 µM for the second.

CC1N=C(SCC2=CSC3=NC(Cc4ccccc4)CN23)Nc2ccccc21 (centres unmarked) [Example 113, 6-benzyl-3-(((4-methyl-1,4-dihydroquinazolin-2-yl)thio)methyl)-5,6-dihydroimidazo[2,1-b]thiazole dihydrochloride] and C1=C(CSC2=NCC(Cc3ccccc3)N2)N2Cc3ccccc3N=C2S1 (centres unmarked) [Example 33, 3-(((5-benzyl-4,5-dihydro-1H-imidazol-2-yl)thio)methyl)-5H-thiazolo[2,3-b]quinazoline dihydrochloride] cannot be ordered by IC50: ≤ 10 µM for the first, ≤ 10 µM for the second.

CCCCN1CCN=C1SCC1=CSC2=NCc3ccccc3CN12 [Example 37, 3-(((1-butyl-4,5-dihydro-1H-imidazol-2-yl)thio)methyl)-5,10-dihydrobenzo[e]thiazolo[3,2-a][1,3]diazepine dihydrochloride] and C1=C(CSC2=NCCc3ccccc3N2)N2Cc3ccccc3CN=C2S1 [Example 25, 3-(((4,5-dihydro-1H-benzo[d][1,3]diazepin-2-yl)thio)methyl)-5,10-dihydrobenzo[e]thiazolo[3,2-a][1,3]diazepine dihydrochloride] cannot be ordered by IC50: ≤ 10 µM for the first, ≤ 10 µM for the second.

CN1CCC(SC2=NCc3cc(Cl)ccc3N2)C1 (centres unmarked) [Example 103, 6-chloro-2-((1-methylpyrrolidin-3-yl)thio)-1,4-dihydroquinazoline dihydrochloride] and FC(F)CN1CCC(SC2=NCc3ccccc3N2)C1 (centres unmarked) [Example 102, 2-((1-(2,2-difluoroethyl)pyrrolidin-3-yl)thio)-1,4-dihydroquinazoline hydrochloride] cannot be ordered by IC50: ≤ 10 µM for the first, 10 to 32 µM for the second.

COc1ccc(CC2(C)CN3C(CSC4=NCc5ccccc5N4)=CSC3=N2)cc1 (centres unmarked) [Example 46, 3-(((3,4-dihydroquinazolin-2-yl)thio)methyl)-6-(4-methoxybenzyl)-6-methyl-5,6-dihydroimidazo[2,1-b]thiazole dihydrochloride] and CC1(c2ccccc2)CN=C(SCC2=CSC3=NCc4ccccc4CN23)N1 (centres unmarked) [Example 30, 3-(((5-methyl-5-phenyl-4,5-dihydro-1H-imidazol-2-yl)thio)methyl)-5,10-dihydrobenzo[e]thiazolo[3,2-a][1,3]diazepine dihydrochloride] cannot be ordered by IC50: ≤ 10 µM for the first, ≤ 10 µM for the second.

c1ccc2c(c1)CN=C(SCCN1[C@@H]3CCC[C@H]1CC3)N2 [Example 133, 2-((2-((1R,5S)-8-azabicyclo[3.2.1]octan-8-yl)ethyl)thio)-3,4-dihydroquinazoline dihydrochloride] and CN1CCC(CCSC2=NCc3ccccc3N2)C1 (centres unmarked) [Example 145, 2-((2-(1-methylpyrrolidin-3-yl)ethyl)thio)-1,4-dihydroquinazoline dihydrochloride] cannot be ordered by IC50: ≤ 10 µM for the first, 10 to 32 µM for the second.

CN1CCCC1CSC1=NCc2ccccc2N1 (centres unmarked) [Example 108, 2-(((1-methylpyrrolidin-2-yl)methyl)thio)-1,4-dihydroquinazoline dihydrochloride] and C1=C(CSC2=Nc3ccccc3C(c3ccccc3)N2)N2Cc3ccccc3CN=C2S1 (centres unmarked) [Example 27, 3-(((4-phenyl-3,4-dihydroquinazolin-2-yl)thio)methyl)-5,10-dihydrobenzo[e]thiazolo[3,2-a][1,3]diazepine dihydrochloride] cannot be ordered by IC50: 10 to 32 µM for the first, ≤ 10 µM for the second.

System: not given
Assay: not given
Conditions: not given

First: C1=C(CSC2=NCc3ccccc3N2)N2Cc3cccnc3N=C2S1 (as salt: hydrochloride) [Example 28, 3-(((3,4-dihydroquinazolin-2-yl)thio)methyl)-5H-pyrido[2,3-d]thiazolo[3,2-a]pyrimidine trihydrochloride]
Second: CC1(C)CN2C(CSC3=NCc4ccccc4N3)=CSC2=N1 (as salt: hydrochloride) [Example 3, 3-(((3,4-dihydroquinazolin-2-yl)thio)methyl)-6,6-dimethyl-5,6-dihydroimidazo[2,1-b]thiazole dihydrochloride]
The melting point of the first is lower: 180 to 190 °C for the first, 245 to 249 °C for the second.

Compared with CCCCC1CN=C(SCC2=CSC3=Nc4ccccc4CN23)N1 (centres unmarked) (as salt: hydrochloride) [Example 29, 3-(((5-butyl-4,5-dihydro-1H-imidazol-2-yl)thio)methyl)-5H-thiazolo[2,3-b]quinazoline dihydrochloride], Ic1cc2c(c(I)c1I)NC(SCCN1CCCC1)=NC2 (as salt: hydrochloride) [Example 134, 6,7,8-triiodo-2-((2-(pyrrolidin-1-yl)ethyl)thio)-1,4-dihydroquinazoline dihydrochloride] is lower in melting point: 227 to 234 °C for the first, 190 to 195 °C for the second.
